Row | Compound | melting point [°C]
1 | CC(C)N1CCN(CCN2CCN(c3noc4cc(F)ccc34)CC2)C1=O | 125 to 127
2 | CN1Cc2c(Cl)ncn2-c2cccnc2C1=O | 247 to 248
3 | Cc1nc2c3c(c(CO)cc2n1C)CCC(c1ccccc1)O3 (stereo unspecified) | 279 to 281
4 | Cc1cc(CC#N)c(CC#N)cc1C | 103 to 104
5 | C=CCN1CCc2cc(OC)c(O)c3c2C1Cc1cc(OC)c(OC)cc1-3 (single isomer, unassigned; (+)) | 85 to 93
6 | CCc1ncc(CCCOc2ccc(-c3nnn(C)n3)cc2)n1C | 115 to 117
7 | COc1ccc2ccc(N3C(=O)c4ccccc4C3CC(O)CCC(C)C)nc2n1 (stereo unspecified) | 110
8 | Cc1cc(C2N(c3ccccc3)CCN2c2ccccc2)cc(Cl)c1O | 146 to 147
9 | CCCCCCCCCCCCc1nnn(C(CCCCC)C(=O)Nc2c(OC)cc(OC)cc2OC)n1 (stereo unspecified) | 152 to 155
10 | OCc1ccc(-c2ccc3[nH]cc(C[C@H]4CCCN4)c3c2)cc1 | 65 to 69
11 | CNC(=O)N(CCN1CCC(Nc2nc3ccccc3n2Cc2ccc(F)cc2)CC1)c1nccs1 | 172
12 | O=c1c(CO)c(-c2ccc(O)cc2)oc2ccccc12 | 234 to 235
13 | O=S1(=O)C(c2ccsc2)=CCC=C1c1ccsc1 | 162 to 164
14 | N#Cc1nn(-c2c(Cl)cc(C(F)(F)F)cc2Cl)c(N)c1-c1ccc(C(F)(F)F)o1 | 148 to 151
15 | OCCCc1ccccc1OCc1ccccc1 | 45 to 48
16 | O=C1c2cc3ccc4c(c3c(-c3ccc5c(c3)OCO5)c2C(=O)N1CCCO)OCO4 | 150 to 152
17 | BrC1=C(Br)C(Br)(Br)C(Br)=C1Br | 87 to 88
18 | O=C1CCc2c(-c3ccncc3)sc(-c3ccccc3F)c21 | 133 to 135
19 | NC1CNC(=O)C12CC2 (stereo unspecified) | 97 to 99
20 | Cc1nc(N2CCc3ccc(F)cc3CC2)c([N+](=O)[O-])c(=O)[nH]1 | > 200
21 | O=C1CCCCCN1CNC(=S)NCN1CCCC1=O | 147 to 148

Row | Compound | melting point [°C]
22 | O=S1N=C(NCCCN(Cc2ccccc2)c2ccccn2)C(NCc2cccnc2)=N1 (stereo unspecified) | 114 to 116
23 | O=C1OCC(C(F)(F)F)N1c1nc(-c2ccc(Br)cc2)cs1 (stereo unspecified) | 154 to 156
24 | CCCc1nc2c(N)nc3cc(CCc4cccnc4)ccc3c2n1NC(C)C | 100 to 103
25 | CCCCCC1C=CC(c2ccc(F)c(F)c2)=CC1 (stereo unspecified) | 31
26 | O=C1Nc2ccccc2N2CCN(c3ccccc3)CCN12 | 198 to 199
27 | COc1cc(COc2nn(-c3ccccc3)cc2/C=C/c2nnc(C)o2)ccc1OCc1nc(-c2ccco2)oc1C | 186 to 187
28 | CCCCc1nc2c(N)nc3ccccc3c2n1CCCC(=NO)c1ccccc1 | 242 to 244
29 | COc1ccc(CN2c3ncccc3NC(=O)c3cccnc32)cc1 | 209 to 210
30 | CCCCCCCCCCC(O)C1CCC(C2CCC(C(O)CCCCCCCCCC(O)CC3=CC(C)OC3=O)O2)O1 (stereo unspecified) | 69 to 70
31 | CC1C(=S)Nc2c1cc(F)c(F)c2F (stereo unspecified) | 177 to 178
32 | CC(C)C(=O)NC1C=CC(CO)C1 (stereo unspecified) | 80 to 81
33 | Cc1ccc(-c2nc(COc3ccc(CCCCn4ccnc4)cc3)co2)o1 | 91 to 92
34 | COc1ccnc(CCc2nc3cc(-c4ccc(S(=O)(=O)NC5CCCCC5)cc4)cnc3[nH]2)c1 | 199 to 200
35 | COc1ccc([C@]2(O)OCC(C)(C)N[C@H]2C)cc1 | 170 to 172
36 | N#Cc1ccn(-c2ccc([N+](=O)[O-])cc2F)c1 | 117 to 119
37 | CCCCCCc1cc(-c2nc(-c3cc(CCCCCC)c(O)cc3O)nc(-c3cc(CCCCCC)c(O)cc3O)n2)c(O)cc1O | > 250
38 | COc1cc(N)c([N+](=O)[O-])c(OC(F)F)c1OC | 141 to 142
39 | CCN(CCCCc1c[nH]c2ccc(F)cc12)C1COc2c(F)ccc(C(N)=O)c2C1 (stereo unspecified) | 110
40 | O=[N+]([O-])c1ccc(C(c2cccs2)C(Cc2cccs2)N2CCC(Cc3ccccc3)CC2)cc1 (stereo unspecified) | 124 to 126
41 | CN1C(=O)C2(COc3cc4c(cc32)OCCO4)c2c(C(=O)NC3CCCCC3)cccc21 (stereo unspecified) | 139 to 140

Results, then the compound that gave them:

Row | melting point [°C] | Compound
42 | 79 to 81 | COC(=O)CC[C@H](NC(=O)CCCCC=Cc1cnc2nc(NC(=O)C(C)(C)C)nc(O)c2c1)C(=O)OC
43 | 120 to 122 | O=C1NC(=O)C(Cc2ccc(C(=O)CCCc3ccccc3)cc2)S1 (stereo unspecified)
44 | 158 | CN=C1SC2Cc3ccc(S(C)(=O)=O)cc3C2(O)N1C (stereo unspecified)
45 | 212 to 214 | Cc1ccc(Nc2nc(C)cs2)nc1
46 | 130 | CCC(C#N)c1cccc(C(=O)c2cc3cc(C(=O)OC)sc3s2)c1 (stereo unspecified)
47 | 63 | COC(=O)c1nc(C(=O)c2ccc(N)c(OC)c2)n2ccccc12
48 | 130 to 131 | CCOC(=O)C1=C(C)N(C(C)=O)C(c2cscn2)=NC1c1cccc(OC)c1 (stereo unspecified)
49 | 188 to 190 | CCOC(=O)COc1ccccc1-c1cc(C#N)c(=O)[nH]c1C
50 | 99 to 101 | COC(=O)c1ccc(-c2ccncc2)cc1
51 | 202 | COc1ccc(NC(=O)Nc2ccc(Cl)c(Cl)c2)cc1NC(=S)Nc1cc(Cl)cc(Cl)c1
52 | 131 to 133 | COc1cc(C2COc3c(C)c(C)c(NC(=O)CC(C)(C)C)c(C)c32)ccc1C(C)=O (stereo unspecified)
53 | 148 to 149 | NC(=O)c1ccc(OCCn2ccnc2)cc1
54 | 214 to 216 | Cc1cccc(NC(=O)NC2N=C(CO)c3cccc(C)c3N(CC(=O)N3CCCCCCC3)C2=O)c1 (stereo unspecified)
55 | 157 to 160 | CC(C)(C)OC(=O)N1CCC(c2nc(-c3ccncc3)c(-c3ccc(F)cc3)[nH]2)CC1
56 | 185 to 191 | CC1(C)C(=O)Nc2ccc(N)cc21
57 | 157 to 158 | NC(=O)Cc1ccc2c(c1)C(=O)c1ccccc1CO2
58 | 262 to 263 | COc1c(F)ccc2c1C(C)(C)CC(O)(C(F)(F)F)C2Nc1cccc2c(=O)n(C)ncc12 (stereo unspecified)
59 | 48 to 49 | CCOC(=O)CCCC(=O)c1ccc(OCCCCCBr)c(CCC(=O)OCC)c1
60 | 50 | CCn1cc(CCC(=O)O)c2ccccc21
61 | 108 to 111 | CN(C)C=C(SCCN1C(=O)c2ccccc2C1=O)C(=O)c1ccc(F)cc1
62 | 111 to 113 | COc1ccc(NN=C(Sc2ccc(C(C)(C)C)cc2)C(C)=O)cc1
63 | 216 to 217 | CC(=O)Nc1nccc(Oc2ccc3c(C(=O)Nc4cccc(C(F)(F)F)c4)cccc3c2)n1
64 | 85 to 87 | COC(=O)[C@H]1CN(C(=O)OC(C)(C)C)C[C@H]1c1ccc(OC)c(OC2CCCC2)c1 (relative stereo)
65 | 203 to 204 | Cc1ccc(N2CN(C(C)(C)C)C3=NN=CC3=C2N)cc1
66 | 113 | CCN(CC)C(=O)COc1nc(-c2ccccc2)nc2ccccc12
67 | 111 to 116 | CCN1C[C@@H](O)[C@H](N(C(=O)c2ccc(Cl)cc2)C2CCCCC2)C1 (relative stereo)
68 | 129 to 130 | O=C(O)CCc1oc(SCc2cccnc2)nc1-c1ccc(Cl)cc1
69 | 162 to 163 | COc1cc(CCC(=O)O)ccc1OCc1oc(-c2ccc(C(F)(F)F)cc2)nc1C

Row | melting point [°C] | Compound
70 | 218 to 220 | COc1c(N2CC(C)C(N)C(C)(C)C2)c(F)cc2c(=O)c(C(=O)O)cn(C3CC3)c12 (stereo unspecified)
71 | 147 to 152 | CC(=O)NNc1nc(C(F)(F)F)nc(-c2ccc(C)cc2)c1-c1ccccc1
72 | 180 to 182 | CCc1cc(-c2nc(C)c(-c3ccnc(Nc4cccc(CNC(C)=O)c4)n3)s2)ccn1
73 | 180 | O=C(NCC(=O)N(c1ccccc1)c1ccccc1)Nc1cccc([N+](=O)[O-])c1
74 | 135 to 137 | CCCCc1nn(-c2cc(NC(=O)CC)ccc2Cl)c(=O)n1Cc1ccc(-c2ccccc2S(N)(=O)=O)cc1F
75 | 152 to 154 | COc1cc(C=CC(=O)Nc2cnc3c(C)cc(C)cc3c2-c2ccccc2Cl)cc(OC)c1OC(C)=O
76 | 91 to 92.5 | CN1CCN(c2cc(Cl)nc(-c3ccccc3)n2)CC1
77 | 225 to 226 | O=C(c1ccc(Nc2ccnc3cc(C(F)(F)F)ccc23)cc1)N1CC=C(c2ccc(Cl)cc2)CC1
78 | 116 | CN(C(=O)Nc1ccc(Cl)c(Cl)c1)S(=O)(=O)C(C)(C)C
79 | 138 to 140 | Cn1nc(C(F)(F)F)nc1Oc1cc(On2c(=O)cc(C(F)(F)F)n(C)c2=O)c(F)cc1Cl
80 | 172 to 174 | C=C(F)CONC(=O)c1nc(-c2ccc(Cl)c(OC)c2F)cc(N)c1Cl
81 | 82.8 | O=C(c1ccccc1)N1CCOC(CCOS(=O)(=O)c2ccccc2)(c2ccc(F)c(F)c2)C1 (single isomer, unassigned; (+))
82 | 180 to 182 | CC#CCOc1ccc(S(=O)(=O)N[C@@H](C(=O)NO)C2CCC(O)CC2)cc1 (stereo partly specified)
83 | 280 to 281 | O=C1NC(=O)C2(CCS(=O)(=O)c3ccccc32)N1 (stereo unspecified)
84 | 166 | CCOC(=O)C=Cc1ccc(C(=O)Nc2ccc3c(c2)C(C)(C)CCC3(C)C)cc1
85 | 83 | COC(=O)N1CCN(C(=O)N2CCC(c3cccnc3)C2)c2ccccc21 (stereo unspecified)
86 | 150 to 152 | CN(c1cccc2cc(C(=O)NCC(C)(CN3CCOCC3)SCc3ccccc3)[nH]c12)S(=O)(=O)c1cccs1 (stereo unspecified)
87 | 163 to 165 | O=C(O)C1CCCc2[nH]c3ccccc3c21 (stereo unspecified)
88 | 156 to 158 | CCCCCC1(C(=O)Oc2ccc(C(=O)O)cc2)CC2=C(C1)C(C)(C)CCC2(C)C
89 | 138 to 139 | CNc1[nH]c(-c2ccccc2)c(C)c1C#N
90 | > 260 | CCOC(=O)c1cnc2ccc(OC)cc2c1O
91 | 109 | O[C@H]1C[C@@H](c2ccccc2)c2ccc(Cl)cc21
92 | 239 to 241 | CCc1cccc2oc(C(=O)Nc3ccc(-c4ccc(S(=O)(=O)NC(C(=O)O)C(C)C)cc4)cc3)c(C)c12 (stereo unspecified)
93 | 69 | O=S(=O)(c1ccc(F)cc1)N1CCCC1c1ccco1 (racemic)
94 | 179 to 182 | O=C(Nc1ccc(Oc2cc(Cl)ncn2)cc1)Nc1ccc(Br)c(C(F)(F)F)c1
95 | 250 to 253 | O=C1Nc2cccc(Cl)c2C1(O)c1cc2c(cc1O)OCO2 (stereo unspecified)
96 | 116 to 118 | COc1ccc(NCCSC#N)c([N+](=O)[O-])c1
